Test: method code SF-HPLC, from DOI: 10.1002/qsar.200300824

| logP | SMILES |
| --- | --- |
| 2.12 | Cc1nc(-c2cc(=O)oc3ccccc23)no1 |
| 3.03 | O=c1cc(-c2noc(=S)n2-c2ccccc2)c2ccccc2o1 |
| 2.7 | CC1ON=C(c2cc(=O)oc3ccccc23)N1c1ccccc1 (stereo not drawn) |
| 1 | CC(=O)ON=C(N)c1cc(=O)oc2ccccc12 |
| 1.98 | O=c1cc(C2=NOCN2)c2ccccc2o1 |
| 1.93 | CC1NC(c2cc(=O)oc3ccccc23)=NO1 (stereo not drawn) |
| 2.89 | Cc1ccc(NC(=NO)c2c(Cl)c(=O)oc3ccccc23)cc1 |
| 2.78 | O=c1oc2ccccc2c(C(=NO)NC2CCCCC2)c1Cl |
| 0.22 | O=c1oc2ccccc2c(C(CCO)=NO)c1Cl |
| 3.63 | O=c1cc(C=NNc2ccccc2)c2ccccc2o1 |
| 2.45 | O=c1cc(C2=NOCN2c2ccccc2)c2ccccc2o1 |
| 1.95 | O=c1cc(-c2ncon2)c2ccccc2o1 |
| 2.58 | O=c1oc2ccccc2c(C(=NO)Nc2ccccc2)c1Cl |
| 2.98 | COc1ccc(-c2nc(-c3cc(=O)oc4ccccc34)no2)cc1 |
| 3.07 | COc1ccc(-c2noc(-c3cc(=O)oc4ccccc34)n2)cc1 |
| 3.04 | COc1ccc(C2=NOC(c3cc(=O)oc4ccccc34)O2)cc1 (stereo not drawn) |
| 2.16 | O=c1cc(C2=NOS(=O)N2c2ccccc2)c2ccccc2o1 (stereo not drawn) |
| 3.22 | O=c1cc(-c2noc(-c3ccccc3)n2)c2ccccc2o1 |

Source: the SangsterLogP compilation
